Measured values as given in paper PMC10961359, “Targeting hexokinase 2 for oral cancer therapy: structure-based design and validation of lead compounds” (Frontiers in Pharmacology, 2024).

Legend:
HK2 = molecular target: T1, HK2 (Homo sapiens, UniProt P52789); experiment: HK2 enzyme inhibition assay (Abcam kit ab211114); type: biochemical
T1 construct: purchased Abcam ab211114
T1 sequence (P52789 1-917): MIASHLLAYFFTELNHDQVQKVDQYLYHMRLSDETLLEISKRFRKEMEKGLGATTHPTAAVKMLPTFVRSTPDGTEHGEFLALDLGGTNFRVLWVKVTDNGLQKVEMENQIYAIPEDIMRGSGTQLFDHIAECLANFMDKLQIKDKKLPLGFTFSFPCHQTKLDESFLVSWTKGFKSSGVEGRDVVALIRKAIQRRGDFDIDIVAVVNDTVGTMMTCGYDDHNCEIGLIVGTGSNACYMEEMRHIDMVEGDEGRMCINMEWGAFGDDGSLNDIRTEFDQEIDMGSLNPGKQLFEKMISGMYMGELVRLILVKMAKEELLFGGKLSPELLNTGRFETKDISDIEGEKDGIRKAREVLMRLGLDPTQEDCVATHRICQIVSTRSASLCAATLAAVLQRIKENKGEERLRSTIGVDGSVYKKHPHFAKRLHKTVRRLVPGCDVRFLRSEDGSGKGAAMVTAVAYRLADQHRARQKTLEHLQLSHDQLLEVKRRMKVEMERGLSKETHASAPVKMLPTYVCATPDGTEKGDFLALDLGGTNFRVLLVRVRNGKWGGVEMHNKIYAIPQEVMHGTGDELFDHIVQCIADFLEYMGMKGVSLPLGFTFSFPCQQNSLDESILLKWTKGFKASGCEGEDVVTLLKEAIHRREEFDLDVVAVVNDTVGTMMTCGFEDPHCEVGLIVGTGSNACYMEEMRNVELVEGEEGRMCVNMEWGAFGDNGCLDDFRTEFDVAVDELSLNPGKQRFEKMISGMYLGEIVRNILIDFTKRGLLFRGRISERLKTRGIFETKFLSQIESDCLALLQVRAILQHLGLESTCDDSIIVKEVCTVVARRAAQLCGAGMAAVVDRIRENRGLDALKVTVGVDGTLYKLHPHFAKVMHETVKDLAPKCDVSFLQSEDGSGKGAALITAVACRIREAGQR
Method: The HK2 enzyme inhibition assay was performed using an HK2 inhibitor assay kit (Abcam, ab211114) according to the manufacturer’s instructions. Initially, 50 µM compound concentration was used to perform the enzyme activity inhibition studies, after which IC50 of the top leads were determined.
The hits derived from the docking study were sourced from either commercial suppliers or pre-existing compounds within our laboratory or were synthesized anew. The FaDu and Cal27 oral cancer cells were treated with the compounds for 72 h at concentrations of 3, 10, 30, and 100 μM. A post-treatment MTT assay was done to evaluate their antiproliferative activity. Table S2 represents the anti-proliferative and enzyme inhibitory activity of the compounds obtained as hits from the structure-based drug design strategy. […] Consequently, 50 μM of all the hit compounds were evaluated for their HK2 enzyme inhibitory activity. 50 μM of compounds were incubated with HK2 protein and the rate of reaction was assessed in kinetic mode (rate of conversion of NAD to NADH). The choice of 50 μM concentration was based primarily on MTT assays and GI50 calculation. The average GI50 values of the hit compounds against less sensitive FaDu cell line was approximately 50 μM. Considering this information, we reasoned that utilizing a concentration equivalent to the average GI50 would allow us to assess the maximum inhibitory effect of the compounds on HK2 enzyme activity. […] The same compounds have been previously reported by our team to have EGFR phosphorylation inhibitory potential and were coded as H2 (compound 14) and H10 (compound 11) ([Chakraborty et al., 2022]). […] Figures 1C,D show the lead compounds H2 and H10 at the active site of HK2 enzyme interacting via H-bonds with the amino acid residues.

FaDu cells [1] = experiment: 2-NBDG glucose uptake assay (flow cytometry), FaDu; type: cell-based; details: 10 μM and 30 μM, 72 h, vs DMSO control
Method: FaDu and Cal27 cells were treated with test compounds (0.2 million cells per treatment) and were incubated for 1 h with 100 μM of 2-NBDG (Invitrogen, N13195), in glucose free medium, washed with ice-cold PBS, and re-suspended in 500 μL of PBS and maintained on ice to perform flow cytometric analyses within 30 min. The mean fluorescent intensity (MFI) readout reflects the amount of fluorescent glucose analog taken up by the cells, providing insight into their glucose uptake capacity. The percent (%) cell population positive for glucose uptake (shown with a right shift of the histogram peaks) were also plotted for both the cell lines. For MMP analysis, cells were incubated with 200 nM of TMRE (Invitrogen, T669) for 30 min. For each measurement, data was collected for 10,000 events using a BD FACS Aria III (Becton Dickinson, San Jose, CA) instrument.
2-[N-(7-Nitrobenz-2-oxa-1,3-diaxol-4-yl) amino]-2-deoxyglucose (2-NBDG) uptake into cells happens via glucose transporters and post uptake 2-NBDG gets phosphorylated by hexokinases. Since cancer cells represent higher glycolytic activity, the inhibition of HK2 activity in cancer cells is actively reflected in the inhibition of 2-NBDG uptake ([Hung et al., 2022]; [Li et al., 2022]). […] In this assay, the MFI of intracellular 2-NBDG serves as a quantitative measure of cellular glucose uptake. […] This finding is further supported by the increased % population of 2-NBDG positive cells in Cal27 cells compared to FaDu cells (Figure 3).

FaDu cells [2] = experiment: Annexin V FITC / propidium iodide apoptosis assay, FaDu; type: cell-based; details: 10 and 30 μM, 72 h
Method: FaDu and Cal27 cells were treated with the test compounds (0.5 million cells per treatment) for 72 h, and harvested for cell cycle analysis (Cat# BD340242) and apoptosis analysis (Cat# BD556547) by flow cytometry according to manufacturer’s instructions.
To determine the effect of HK2 inhibition in the progression of the cell cycle, flow cytometric analysis of compound-treated FaDu and Cal27 cells was carried out 72 h post-treatment. Cell cycle analysis is carried out to quantify the DNA content and estimate the percentages of the cell population in different cell cycle phases via propidium iodide staining. […] To determine the apoptosis-inducing activity of HK2 inhibitors, 10 and 30 μM of compounds H2 and H10 treated FaDu and Cal27 cells were stained with annexin V conjugated with FITC, followed by propidium iodide staining.

With `COc1ccc(CNC(=O)c2nc3ccccc3s2)cc1O` [Compound 14, N-(3-hydroxy-4methoxybenzyl)benzo[d]thiazole-2-carboxamide] the inhibition at 50 µM (HK2; read-out: % inhibition of HK2 enzyme activity at 50 µM) was 87%, the IC50 (HK2; read-out: IC50 against HK2) was 2.94 ± 0.2 µM and the “2-NBDG MFI” value (FaDu cells [1]) was “significant reduction”. The apoptosis-inducing activity (FaDu cells [2]) was “late apoptotic and necrotic effects”.
